Measurements from ChEMBL document CHEMBL5113478, “7-Azaindole, 2,7-diazaindole, and 1H-pyrazole as core structures for novel anticancer agents with potential chemosensitizing properties” (Eur J Med Chem, 2022).

Columns and labels:
Type in all cases: functional
MOLT-4 [1] = assay: Antiproliferative activity against human MOLT-4 cells assessed as […] cell proliferation at 10 uM incubated for 48 hrs by WST-1 assay relative to control
MOLT-4 [2] = assay: Antiproliferative activity against human MOLT-4 cells assessed as […] cell proliferation at 10 uM incubated for 48 hrs in presence of 2 uM of CDDP by WST-1 assay relative to control
Jurkat [3] = assay: Antiproliferative activity against human Jurkat cells assessed as […] cell proliferation at 10 uM incubated for 48 hrs by WST-1 assay relative to control
Jurkat [4] = assay: Antiproliferative activity against human Jurkat cells assessed as […] cell proliferation at 10 uM incubated for 48 hrs in presence of 2 uM of CDDP by WST-1 assay relative to control
A2780 [5] = assay: Antiproliferative activity against human A2780 cells assessed as […] cell proliferation at 10 uM incubated for 48 hrs by WST-1 assay relative to control
A2780 [6] = assay: Antiproliferative activity against human A2780 cells assessed as […] cell proliferation at 10 uM incubated for 48 hrs in presence of 2 uM of CDDP by WST-1 assay relative to control
MCF7 [7] = assay: Antiproliferative activity against human MCF7 cells assessed as […] cell proliferation at 10 uM incubated for 48 hrs by WST-1 assay relative to control
MCF7 [8] = assay: Antiproliferative activity against human MCF7 cells assessed as […] cell proliferation at 10 uM incubated for 48 hrs in presence of 10 uM of CDDP by WST-1 assay relative to control
A549 [9] = assay: Antiproliferative activity against human A549 cells assessed as […] cell proliferation at 10 uM incubated for 48 hrs by WST-1 assay relative to control
A549 [10] = assay: Antiproliferative activity against human A549 cells assessed as […] cell proliferation at 10 uM incubated for 48 hrs in presence of 15 uM of CDDP by WST-1 assay relative to control
SAOS-2 [11] = assay: Antiproliferative activity against human SAOS-2 cells assessed as […] cell proliferation at 10 uM incubated for 48 hrs by WST-1 assay relative to control
SAOS-2 [12] = assay: Antiproliferative activity against human SAOS-2 cells assessed as […] cell proliferation at 10 uM incubated for 48 hrs in presence of 15 uM of CDDP by WST-1 assay relative to control
PANC-1 [13] = assay: Antiproliferative activity against human PANC-1 cells assessed as […] cell proliferation at 10 uM incubated for 48 hrs by WST-1 assay relative to control
PANC-1 [14] = assay: Antiproliferative activity against human PANC-1 cells assessed as […] cell proliferation at 10 uM incubated for 48 hrs in presence of 15 uM of CDDP by WST-1 assay relative to control
HT-29 [15] = assay: Antiproliferative activity against human HT-29 cells assessed as […] cell proliferation at 10 uM incubated for 48 hrs by WST-1 assay relative to control
HT-29 [16] = assay: Antiproliferative activity against human HT-29 cells assessed as […] cell proliferation at 10 uM incubated for 48 hrs in presence of 15 uM of CDDP by WST-1 assay relative to control
HeLa [17] = assay: Antiproliferative activity against human HeLa cells assessed as […] cell proliferation at 10 uM incubated for 48 hrs by WST-1 assay relative to control
HeLa [18] = assay: Antiproliferative activity against human HeLa cells assessed as […] cell proliferation at 10 uM incubated for 48 hrs in presence of 15 uM of CDDP by WST-1 assay relative to control

Structure (SMILES)	Activity (MOLT-4 [1])	Activity (MOLT-4 [2])	Activity (Jurkat [3])	Activity (Jurkat [4])	Activity (A2780 [5])	Activity (A2780 [6])	Activity (MCF7 [7])	Activity (MCF7 [8])	Activity (A549 [9])	Activity (A549 [10])	Activity (SAOS-2 [11])	Activity (SAOS-2 [12])	Activity (PANC-1 [13])	Activity (PANC-1 [14])	Cell viability relative to control (HT-29 [15])	Activity (HT-29 [16])	Activity (HeLa [17])	Activity (HeLa [18])
CC(C)S(=O)(=O)c1ccc(-c2cc(C(=O)Nc3ccc(N(C)C)cc3)n[nH]2)cc1	93%	65%	93%	65%	93%	65%	93%	65%	93%	65%	93%	65%	93%	65%	93%	65%	93%	65%
CC(C)S(=O)(=O)c1ccc(-c2cc(C(=O)Nc3ccccc3)n[nH]2)cc1	107%	70%	107%	70%	107%	70%	107%	70%	107%	70%	107%	70%	107%	70%	107%	70%	107%	70%
CCN(CC)c1ccc(CNC(=O)c2n[nH]c3ncc(-c4ccc(S(=O)(=O)C(C)C)cc4)cc23)cc1	83%	57%	83%	57%	83%	57%	83%	57%	83%	57%	83%	57%	83%	57%	83%	57%	83%	57%
CC(C)S(=O)(=O)c1ccc(-c2cnc3[nH]cc(CN4CCc5ccccc5C4)c3c2)cc1	101%	62%	101%	62%	101%	62%	101%	62%	101%	62%	101%	62%	101%	62%	101%	62%	101%	62%
CC(C)S(=O)(=O)c1ccc(-c2cc(C(=O)NCc3ccccc3)n[nH]2)cc1	98%	68%	98%	68%	98%	68%	98%	68%	98%	68%	98%	68%	98%	68%	98%	68%	98%	68%
CCN1CCN(C(=O)c2c[nH]c3ncc(-c4ccc(S(C)(=O)=O)cc4)cc23)CC1	95%	70%	95%	70%	95%	70%	95%	70%	95%	70%	95%	70%	95%	70%	95%	70%	95%	70%
CCN(CC)c1ccc(CNC(=O)c2cc3cc(-c4ccc(S(=O)(=O)C(C)C)cc4)cnc3[nH]2)cc1	95%	57%	95%	57%	95%	57%	95%	57%	95%	57%	95%	57%	95%	57%	95%	57%	95%	57%
CC(C)S(=O)(=O)c1ccc(-c2cnc3[nH]nc(C(=O)NCc4ccccc4)c3c2)cc1	90%	60%	90%	60%	90%	60%	90%	60%	90%	60%	90%	60%	90%	60%	90%	60%	90%	60%
CCN1CCN(C(=O)c2cc3cc(-c4ccc(S(C)(=O)=O)cc4)cnc3[nH]2)CC1	90%	58%	90%	58%	90%	58%	90%	58%	90%	58%	90%	58%	90%	58%	90%	58%	90%	58%
CC(C)S(=O)(=O)c1ccc(-c2cnc3[nH]nc(C(=O)N4CCc5ccccc5C4)c3c2)cc1	96%	61%	96%	61%	96%	61%	96%	61%	96%	61%	96%	61%	96%	61%	96%	61%	96%	61%
CS(=O)(=O)c1ccc(-c2cnc3[nH]nc(C(=O)N4CCC(c5ccccc5)CC4)c3c2)cc1	92%	71%	92%	71%	92%	71%	92%	71%	92%	71%	92%	71%	92%	71%	92%	71%	92%	71%
CC(C)S(=O)(=O)c1ccc(-c2cnc3[nH]cc(C(=O)N4CCc5ccccc5C4)c3c2)cc1	85%	66%	85%	66%	85%	66%	85%	66%	85%	66%	85%	66%	85%	66%	85%	66%	85%	66%
CC(C)S(=O)(=O)c1ccc(-c2cc(-c3nc(-c4ccccc4)no3)n[nH]2)cc1	101%	62%	101%	62%	101%	62%	101%	62%	101%	62%	101%	62%	101%	62%	101%	62%	101%	62%
